Test results from PubChem BioAssay AID1645865 (Buhrlage Lab, Dana-Farber Cancer Institute and Novartis …, 2021).
Activity calls are given as the source filed them.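 Rule for the calls: active = maximal inhibition of the USP30 enzyme reaching 30% or more across the dose series; inactive = the rest.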

Target: Ubiquitin carboxyl-terminal hydrolase 30 (Homo sapiens) (UniProt Q70CQ3)
Test: ubiquitin-specific protease 30 DUB inhibitors, concentration-effect, biochemical, validation of primary actives (AID 1645865)
Conditions: purified USP30, Ub-rhodamine cleavage, fluorescence, 2 h

Chain of Ubiquitin carboxyl-terminal hydrolase 30 (Homo sapiens) (Q70CQ3 whole entry, looked up): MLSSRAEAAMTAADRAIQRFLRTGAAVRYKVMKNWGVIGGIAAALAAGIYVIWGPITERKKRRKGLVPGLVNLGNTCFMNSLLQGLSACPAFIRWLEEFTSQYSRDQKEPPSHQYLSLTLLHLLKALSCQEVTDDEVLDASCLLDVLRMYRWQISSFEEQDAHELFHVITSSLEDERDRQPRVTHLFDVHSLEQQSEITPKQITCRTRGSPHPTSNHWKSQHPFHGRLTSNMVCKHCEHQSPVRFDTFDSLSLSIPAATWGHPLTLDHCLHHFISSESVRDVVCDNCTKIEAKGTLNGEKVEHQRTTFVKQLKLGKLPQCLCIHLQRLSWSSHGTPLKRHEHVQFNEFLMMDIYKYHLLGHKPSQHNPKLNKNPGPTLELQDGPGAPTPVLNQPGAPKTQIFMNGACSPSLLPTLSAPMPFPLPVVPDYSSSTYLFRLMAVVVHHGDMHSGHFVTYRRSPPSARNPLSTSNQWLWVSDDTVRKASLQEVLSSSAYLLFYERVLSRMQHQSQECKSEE

Row | SMILES | IC50
1 | Cc1cc(C(=O)Nc2ccc3c(c2)OCCO3)no1 | > 50 µM (inactive)
2 | CC(=O)Nc1ccc(NC(=O)c2cc(-c3cc(C)cc(C)c3O)n[nH]2)cc1 | 12 µM
3 | CCOc1ccc2cc3c(nc2c1)OC(=O)N(Cc1ccc(C)o1)C3 | 1.29 µM
4 | O=C1/C(=C/c2cn(-c3ccccc3)nc2-c2ccc3c(c2)OCCO3)Cc2ccccc21 | > 50 µM (inactive)
5 | COC1/C=C/OC2(C)Oc3c(C)c(O)c4c(c3C2=O)C(=O)C=C(NC(=O)/C(C)=C\C=C\C(C)C(O)C(C)C(O)C(C)C(OC(C)=O)C1C)C4=O (stereo not given) | > 50 µM (inactive)
6 | COc1cc(-c2cc(C(=O)Nc3cc(C)[nH]n3)c3ccccc3n2)cc(OC)c1OC | 32.7 µM
7 | COc1cccc(CC(=O)Nc2cc(F)c3nc(N4CCOCC4)ccc3c2)c1 | > 50 µM (inactive)
8 | CC12c3ccc4c(c3C(=O)c3occ(c31)C(=O)CC2O)CCC4=O (stereo not given) | > 50 µM (inactive)
9 | CC(C(=O)NCCc1ccccc1)n1nc(-c2ccccc2)c2cc(Cl)ccc21 (stereo not given) | 25.4 µM
10 | Cc1ccc(NC(=O)c2cc(=O)n(C)c3c2c(=O)n(C)c(=O)n3C)c(C)c1 | > 50 µM (inactive)
11 | CC(C)=CCC/C(C)=C/Cc1c(O)cc2c(c1O)C(=O)OC2 | 1.24 µM
12 | O=C(Nc1nnc2n1CCCS2)c1cc2ccccc2o1 | > 50 µM (inactive)
13 | CC1(C)OC2=C(C(=O)c3cc(O)cc(O)c3C2=O)c2cc(CO)c(O)cc21 | > 50 µM (inactive)
14 | Fc1cccc(Cn2cc(-c3noc(-c4cccnc4)n3)nn2)c1 | 26.4 µM
15 | O=S1(=O)CCN(CC2CCCO2)c2c(Oc3ccccc3)nc(F)c(Cl)c21 (stereo not given) | > 50 µM (inactive)
16 | Cc1c(CC(=O)N2CCN(c3ncccn3)CC2)c(=O)oc2cc(O)ccc12 | 26.3 µM
17 | COc1ccc(C(C(=O)NC2CCCCC2)N(C(=O)CCCC(=O)Nc2ccccn2)c2ccccc2C)cc1 (stereo not given) | 19.3 µM
18 | CCCc1nc2sc3c(NCc4ccco4)ncnc3c2c2c1CCC2 | > 50 µM (inactive)
19 | CC[C@H](C)C[C@H]1CC[C@](O)([C@](C)(O)C(=O)N[C@@H]2C(=O)N3NCCC[C@@H]3C(=O)N(O)[C@@H](C)C(=O)NCC(=O)N3NCCC[C@H]3C(=O)N(O)[C@H](C)C(=O)O[C@H]2C(C)C)O[C@@H]1C | 2.09 µM
20 | Cc1ccc(NC(=O)C2CCN(c3cncnc3N3CCCC3)CC2)cc1 | > 50 µM (inactive)
21 | O=C(COC(=O)C1CCCN1C(=O)C12CC3CC(CC(C3)C1)C2)c1ccc(Cl)cc1 (stereo not given) | 6.49 µM
22 | CC(C)N1C[C@@H]2C[C@H](NS(=O)(=O)c3cccc(C#N)c3)CN2Cc2ccccc21 | > 50 µM (inactive)
23 | CCc1c(C)c(C#N)c2nc3ccccc3n2c1N1CCN(C2CCCC2)CC1 | 1.7 µM

Row | SMILES | IC50
24 | O=C(Nc1ccccc1)c1nc2c(s1)CCN(C(=O)c1ccccc1)CC2 | > 50 µM (inactive)
25 | COc1ccc(OC)c(-c2c(C#N)c(C)nc3c2N2CCC3CC2)c1 | 24.1 µM
26 | O=C(Nc1ccccc1)C1CCCN(C(=O)c2cc3ccccc3[nH]2)C1 (stereo not given) | 25.3 µM
27 | CC(=O)c1cccc(NC(=O)c2ccc3[nH]c4c(c3c2)CC(C)CC4)c1 (stereo not given) | > 50 µM (inactive)
28 | O=C(CSc1ncnc2c1oc1ccccc12)NC1CCCC1 | 20.7 µM
29 | O=C(Cn1c(=O)n(CCCC(=O)N2CC=C(c3ccccc3)CC2)c(=O)c2ccccc21)NCCC1=CCCCC1 | > 50 µM (inactive)
30 | COC(=O)c1cc2c(ccn2C)n1CC(=O)NC1CCCC1 | > 50 µM (inactive)
31 | O=C(/C=C/c1ccc2c(c1)OCO2)Nc1nc2c(s1)COCC2 | 25.8 µM
32 | CCCCN1CC(C(=O)Nc2ccc(C(=O)Nc3ccc(F)c(Cl)c3)cc2)CC1=O (stereo not given) | 47.5 µM
33 | CC(C)NS(=O)(=O)c1ccc(CCC(=O)Nc2ccc3c(c2)OCCO3)cc1 | 37.8 µM
34 | COCCCN1CCS(=O)(=O)c2c(Cl)c(F)nc(Oc3ccccc3F)c21 | > 50 µM (inactive)
35 | CC(=O)Nc1ccc(O)c(-c2nc3cc(C)ccc3o2)c1 | 3.99 µM
36 | CN(C)S(=O)(=O)c1ccc(N2CCCC2)c(C(=O)Nc2ccc(-c3cn4ccsc4n3)cc2)c1 | > 50 µM (inactive)
37 | Cc1cc(C#N)c2c(C)ccc(C(C)C)cc1-2 | > 50 µM (inactive)
38 | CS(=O)(=O)N1CCCN(c2nc3cc(Cl)ccc3n3cccc23)CC1 | > 50 µM (inactive)
39 | O=C(Cn1cnc2ccccc21)Nc1ccc2c(c1)CCC2 | 42.6 µM
40 | N#Cc1c(N)nc2c(c1N)C(c1ccccc1)CO2 (stereo not given) | 42.8 µM
41 | CCCCN1CC(C(=O)Nc2ccc(C(=O)Nc3ccc(Cl)cc3)cc2)CC1=O (stereo not given) | 2.21 µM
42 | O=C(NCc1ccc2c(c1)OCO2)c1cc2c(s1)-c1ccccc1OC2 | 3.58 µM
43 | COc1ccc(OC)c(NC(=O)CS(=O)(=O)c2cn(CC(=O)N3CCC(C)CC3)c3ccccc23)c1 | 42 µM
44 | CCCC(=O)N1CCC2(CC1)Nc1ccccc1NC2=O | > 50 µM (inactive)
45 | O=C1CC(c2ccco2)Cc2[nH]c(=O)c(-c3nc(-c4ccc(Cl)cc4)cs3)cc21 (stereo not given) | > 50 µM (inactive)
46 | Cc1ccccc1NC(=O)CNc1nc(Nc2ccccc2)nc(Nc2ccccc2)n1 | 26.4 µM

Second part, the compound after the results:

Row | IC50 | SMILES
47 | 29.2 µM | Cc1ccc(Nc2nc(NCCc3ccccc3)nc3c2cnn3C)cc1
48 | 2.71 µM | Cc1ccc2c(c1)N(C)C(=O)c1cc(NC(=O)c3ccc(F)cc3)ccc1O2
49 | 24.6 µM | COc1cccc(C(=O)Nc2ccc(-n3cnnn3)cc2)c1
50 | > 50 µM (inactive) | Cc1ccccc1Cn1cc(SCC(=O)Nc2ccc3c(c2)OCCO3)c2ccccc21
51 | > 50 µM (inactive) | O=C(NCc1ccccc1Cl)c1ccc2cn[nH]c2c1
52 | > 50 µM (inactive) | COc1ccc(/C=C/c2ccnc3nc(-n4cccc4)nn23)cc1
53 | > 50 µM (inactive) | COc1ccc(C(=O)Nc2cc3c4c(c2)C(C)C(=O)N4CCC3)cc1 (stereo not given)
54 | > 50 µM (inactive) | CCOC(=O)c1cc2c(ccn2C)n1Cc1cccc2ccccc12
55 | 29.6 µM | CCN1C(=O)COc2ccc(NC(=O)c3ccc(OCc4nonc4C)cc3)cc21
56 | 40.3 µM | Cc1nc2ccccc2nc1SCC(=O)Nc1ccc2c(c1)OCO2
57 | > 50 µM (inactive) | Cc1c(C(=O)Nc2ccc(-c3nnc4n3CCCCC4)cc2)oc2c1ccc1ccccc12
58 | 35.4 µM | O=C(CCCn1c(=O)[nH]c2cc(Cl)ccc2c1=O)N1CCc2ccccc2C1
59 | > 50 µM (inactive) | CC(C)Cn1cc(OC(=O)c2ccc(F)cc2)c2c1nc(-c1ccc(F)cc1)n1c3ccccc3nc21
60 | > 50 µM (inactive) | CCOC(=O)c1ccc(-n2c(=O)c(C#N)cc3c(=O)n4ccccc4nc32)cc1
61 | 0.975 µM | CCOc1ccc(NC(=O)Cn2cc(C(=O)c3ccc(Cl)cc3)c(=O)c3cc(OC)ccc32)cc1
62 | 9.77 µM | CCn1c(SCC(=O)c2c(N)n(CC(C)C)c(=O)n(C)c2=O)nnc1-c1ccccc1
63 | > 50 µM (inactive) | COc1ccc(OC)c(-c2cn3ccn(-c4ccc5c(c4)CCC5)c(=O)c3n2)c1
64 | 2.77 µM | CC(=O)c1ccc(NC(=O)CSc2nc(-c3ccccc3)nc3c2COC(C)(C)C3)cc1
65 | 0.465 µM | CCOc1ccc(NC(=O)Cn2c(=O)n(CC(=O)NCc3ccc(C)cc3)c(=O)c3sccc32)cc1
66 | > 50 µM (inactive) | COc1ccc2nc3c(cc2c1)c(=O)n(C)c1c3c(=O)n(-c2ccccc2)c(=O)n1-c1ccccc1
67 | 24.4 µM | Cc1ccc(C(=O)Nc2nc3n(n2)C(c2ccccc2)CC(=O)N3)cc1 (stereo not given)
68 | 1.65 µM | CCOC(=O)N1CCN(S(=O)(=O)c2ccc(C(=O)Nc3ccc(Br)cc3)cc2)CC1
69 | > 50 µM (inactive) | O=C(CN1C(=O)COc2ccc(Cl)cc21)Nc1cccc2ncccc12
70 | 25.8 µM | Cn1c(=O)c2cc(C(=O)Nc3ccc(F)cc3)cnc2n(C)c1=O
